Data: PMC8198049, “Synthesis and Evaluation of the Tetracyclic Ring-System of Isocryptolepine and Regioisomers for Antimalarial, Antiproliferative and Antimicrobial Activities” (Molecules, 2021)
Counter-ions that a name gives are not always drawn. Like-named read-outs stand apart in the source and are kept apart here.

Experiments:
[1] = system: PC-3 (human prostate cancer); test: Antiproliferative assay (resazurin); type: cell-based; conditions: for IC50: Homo sapiens, 72 h compound incubation, mean ± sem, two separate experiments
Procedure: (§1) Compounds tested in the antiproliferative assays were tested in 11 dilution points (0.02 µM–40 µM or 0.04 µM–80 µM). […] HCT116 cells were maintained in McCoy’s 5A media (Life Technologies, CA, USA), MDA-MB-231 cells were cultured in DMEM media (Life Technologies) with 10 mM HEPES (Life Technologies), whilst PC-3 cells were maintained in RPMI media (Life Technologies). All media were supplemented with 10% heat-inactivated fetal bovine serum (Australian source; Corning, CA, USA) and all cells were incubated at 37 °C in a humidified incubator with 5% CO2. Cells were seeded in 384-well plates (Greiner Bio-One, NC, USA) using the respective complete media. After 24 h cell seeding, compounds were added and antiproliferative activity was determined using the resazurin assay after 72 h compound incubation. Briefly, cells were incubated with 60 µM resazurin (Cayman, MI, USA) for 6 h at 37 °C and fluorescence signals were measured using a microplate reader (EnSight, PerkinElmer, Waltham, MA, USA).

[2] = system: MDA-MB-231 (human breast adenocarcinoma); test: Antiproliferative assay (resazurin); type: cell-based; conditions: for IC50: Homo sapiens, MDA-MB-231, 72 h compound incubation, mean ± sem, two separate experiments
Procedure: as §1

[3] = system: HCT116 (human colon cancer); test: Antiproliferative assay (resazurin); type: cell-based; conditions: for IC50: Homo sapiens, HCT-116, 72 h compound incubation, mean ± sem, two separate experiments
Procedure: as §1

[4] = Cytotoxicity assay (resazurin-based viability); type: cell-based; conditions: human, HEK293 cells, mean ± standard deviation, two separate experiments
Procedure: Fluorescence was measured using an EnSight plate reader (PerkinElmer, Waltham, MA, USA).

[5] = system: Plasmodium falciparum 3D7 strain; test: Antiplasmodial imaging assay; type: cell-based; conditions: P. falciparum 3D7, 72 h, mean ± standard deviation, two separate experiments; for IC50: Plasmodium falciparum
Procedure: (§2) Compounds tested in the antiproliferative assays were tested in 11 dilution points (0.02 µM–40 µM or 0.04 µM–80 µM).
(§3) Antiplasmodial activity was determined as previously described by Duffy and Avery. […] After incubation, plates were stained with 4’,6-diamidino-2-phenylindole (DAPI) in a permeabilization buffer for 5 h at rt in the dark. Plates were imaged on the Opera confocal microplate image reader (PerkinElmer).

[6] = Antiplasmodial imaging assay; type: cell-based, Plasmodium falciparum; conditions: human (HEK293) and Plasmodium falciparum (3D7)
Procedure: as §2, §3

[7] = HEK293 cells versus Plasmodium falciparum 3D7 culture, HEK293 vs 3D7, read-out: SI (selectivity index = cytotoxicity in HEK293/activity in 3D7)

| SMILES | melting point [°C] | IC50 [1] [µM] | IC50 [2] [µM] | IC50 [3] [µM] | IC50 [5] [µM] | IC50 at 72 h [4] [µM] | further results |
| --- | --- | --- | --- | --- | --- | --- | --- |
| c1cnc2c(c1)ccc1c3ccccc3[nH]c12 [Compound 18, 11H-Pyrido[2,3-a]carbazole] | 164 | – | – | – | – | – | – |
| C[n+]1cccc2c3c(ccc21)[nH]c1ccccc13 (as salt: hydroiodid) [Compound 10, 4-Methyl-7H-pyrido[2,3-c]carbazolium Iodide] | 284 to 286 | – | – | – | – | – | – |
| c1cnc2c(c1)ccc1[nH]c3ccccc3c12 [Compound 20, 7H-Pyrido[3,2-c]carbazole] | – | – | 16.4 | 17 | 2.41 ± 0.042 | – | % at 40 µM (PC-3) ([1]; PC-3, 40 µM): 47% at 40 µM |
| C=CCn1cc2c3ccccc3nc-2c2ccccc21 [Compound 3c, 5-Allyl-5H-indolo[3,2-c]quinoline] | – | 1.3 ± 0.051 | 3.06 ± 0.467 | 1.24 ± 0.08 | 1.2 ± 0.032 | 3.15 ± 0.04 | selectivity ratio at 72 h [6, 7]: 2.6 |
| CCn1cc2c3ccccc3nc-2c2ccccc21 [Compound 3b, 5-Ethyl-5H-indolo[3,2-c]quinoline] | 198 | 2.44 ± 0.094 | 0.998 ± 0.3 | 0.742 ± 0.011 | 1.318 ± 0.005 | 3.08 ± 0.049 | selectivity ratio at 72 h [6, 7]: 2.3 |
| CCN(CC)CCCC(C)Nc1ccnc2cc(Cl)ccc12 (centres unmarked) [Chloroquine, chloroquine, reference compound] | – | – | – | – | – | > 4 | – |
| c1ccc2c(c1)[nH]c1c3cccnc3ccc21 [Compound 16, 11H-pyrido[3,2-a] carbazole] | – | – | – | – | – | – | 3D7 IC50 ([5]; listed as 15): little to no activity; % at 80 µM (printed in MDA-MB-231 IC50 column) ([2]; MDA-MB-231, 80 µM): 80% at 80 µM; % at 80 µM (printed in HCT116 IC50 column) ([3]; HCT116, 80 µM): 82% at 80 µM |

Second part, led by results:

| melting point [°C] | IC50 [1] [µM] | IC50 [2] [µM] | IC50 [3] [µM] | IC50 [5] [µM] | SMILES | IC50 at 72 h [4] [µM] | further results |
| --- | --- | --- | --- | --- | --- | --- | --- |
| – | 0.83 | 0.59 | 0.15 | – | COc1cccc2c1C(=O)c1c(O)c3c(c(O)c1C2=O)C[C@@](O)(C(=O)CO)C[C@@H]3O[C@H]1C[C@H](N)[C@H](O)[C@H](C)O1 [Doxorubicin, reference compound] | – | – |
| 279 to 280 | – | – | – | – | C[n+]1cccc2c3[nH]c4ccccc4c3ccc21 (as salt: hydroiodid) [Compound 21, 4-Methyl-11H-pyrido[3,2-a]carbazolium Iodide] | – | – |
| – | 0.27 | 0.3 | 0.085 | 0.093 ± 0.002 | COc1ccc(C[C@H](N)C(=O)N[C@H]2[C@@H](O)[C@H](n3cnc4c(N(C)C)ncnc43)O[C@@H]2CO)cc1 [Puromycin, puromycin, reference compound] | 0.003 ± 0.003 | selectivity ratio at 72 h [6]: 0.03 |
| – | – | – | – | 0.001 ± 7e-05 | C[C@H]1[C@@H](O)O[C@@H]2O[C@@]3(C)CC[C@H]4[C@H](C)CC[C@@H]1[C@@]24OO3 [DHA, dihydroartemisinin, reference compound] | – | selectivity ratio at 72 h [6, 7]: 74 |
